For 16 compounds, IC50 results are on record in patent US20240368131A1, “OXOINDOLINYL AMIDE DERIVATIVES FOR INHIBITING NLRP3 AND USES THEREOF” (VENTUS THERAPEUTICS U.S. INC., priority 2022, published 2024).

Some results are limits rather than exact numbers.

Type in all cases: cell-based
The target of assay [1] is T1, human NLRP3 (Homo sapiens, UniProt Q96P20). Put plainly: Human PBMC NLRP3 Assay (IL-1β release). Also noted: Human PBMCs (Normal): iXCells Cat #10HU-003; host or cells: human PBMCs (normal donors), LPS-primed, nigericin-stimulated. The note with it: human PBMCs. How it is done: Reagents: Human PBMCs (Normal): iXCells Cat #10HU-003; RPMI 1640 medium (ATCC modification): ThermoFisher Cat #A1049101 (Complete Media: 10% FBS, 1% Pen/Strep; Assay Media: 1% Pen/Strep; 75 cm^2 cell culture flask: Corning Cat #430641U; 96-well cell culture plates: VWR Cat #10062-900; LPS (E. coli 026:B6): Sigma Cat #L2654, stock 5 mg/mL in PBS; Nigericin sodium salt: Sigma Cat #N7143, stock 5 mg/mL (6.7 mM) in ethanol.
T1 sequence (Q96P20 whole entry): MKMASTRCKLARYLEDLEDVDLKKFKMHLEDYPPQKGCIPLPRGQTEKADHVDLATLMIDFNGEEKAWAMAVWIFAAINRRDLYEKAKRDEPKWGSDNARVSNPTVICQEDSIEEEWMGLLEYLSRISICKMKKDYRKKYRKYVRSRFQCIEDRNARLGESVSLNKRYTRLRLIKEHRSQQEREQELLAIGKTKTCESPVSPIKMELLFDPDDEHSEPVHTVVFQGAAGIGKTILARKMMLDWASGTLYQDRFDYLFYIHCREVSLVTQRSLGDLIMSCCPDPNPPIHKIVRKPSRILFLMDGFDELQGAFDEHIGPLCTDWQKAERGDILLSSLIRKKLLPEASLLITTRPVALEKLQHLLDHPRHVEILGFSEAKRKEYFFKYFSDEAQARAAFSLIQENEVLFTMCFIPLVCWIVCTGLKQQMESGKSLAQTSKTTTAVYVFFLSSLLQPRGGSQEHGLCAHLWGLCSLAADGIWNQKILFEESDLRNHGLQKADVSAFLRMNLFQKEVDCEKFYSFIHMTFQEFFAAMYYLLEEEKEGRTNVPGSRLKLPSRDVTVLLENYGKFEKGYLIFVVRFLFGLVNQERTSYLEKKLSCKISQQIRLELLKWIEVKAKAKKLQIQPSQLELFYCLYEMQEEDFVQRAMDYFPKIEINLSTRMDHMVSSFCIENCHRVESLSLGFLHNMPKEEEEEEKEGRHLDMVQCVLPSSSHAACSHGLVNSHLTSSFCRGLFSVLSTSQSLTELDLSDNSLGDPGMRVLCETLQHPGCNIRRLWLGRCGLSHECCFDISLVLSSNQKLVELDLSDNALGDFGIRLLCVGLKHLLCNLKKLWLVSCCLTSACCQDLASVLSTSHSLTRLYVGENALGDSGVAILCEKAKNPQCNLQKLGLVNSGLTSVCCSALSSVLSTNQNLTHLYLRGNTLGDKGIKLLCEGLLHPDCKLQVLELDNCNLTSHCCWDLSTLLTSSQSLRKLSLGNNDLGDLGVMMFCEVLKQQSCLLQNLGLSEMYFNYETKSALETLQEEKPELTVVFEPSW
Cryopreserved PBMCs (10×10^6 cells/vial) were rapidly thawed in a 37° C. water bath for 2 min and transferred in 10 mL Complete Media. Cells were then centrifuged at 1200 RPM for 5 min, resuspended in 40 mL of Complete Media, transferred in a 75 cm^2 cell culture flask and incubated overnight at 37° C. with 5% CO2. The next day, PBMCs were centrifuged, resuspended in 30 mL Assay Media (˜3.3×10^5 cells/mL) and distributed at 100 μL/well in a 96-well cell culture plate. 50 μl of Assay Media containing 300 ng/ml of LPS was then added to each well except for the untreated control wells (50 μl Assay Media without LPS). Cells were then primed with LPS for 4 h at 37° C. with 5% CO2. A concentration response curve (CRC) was prepared of 500× test compound in 100% dimethyl sulfoxide (DMSO). The CRC was then diluted 1:25 in Assay Media and then further diluted 1:5 in Assay Media resulting in a final 4× CRC in 0.8% DMSO/Assay Media. 50 μL/well of 4× test compound CRC or vehicle (0.8% DMSO/Assay Media) was then transferred into each well and subsequently incubated for 30 min at 37° C. with 5% CO2. Cells were stimulated by adding 4 μL of 500 μM Nigericin, for 1 h at 37° C. with 5% CO2 Plates were then centrifuged at 1200 RPM for 5 min and 100 μl of the media was transferred to a clean 96-well storage plate and stored at −80° C. until analyzed. Cytokine measurements were performed using the mesoscale platform. Compounds were added 30 minutes before priming the cells with LPS when TNFα was required to be quantified in the cytokine panel to confirm selectivity.
Human PBMC NLRP3 Assay: A represents an IC50 value <0.3 μM; B represents an IC50 value ≥0.3 μM and <0.5 μM; C represents an IC50 value ≥0.5 μM and <1.0 μM; D represents an IC50 value >1.0 μM and <10 μM; E represents an IC50 value >10 μM.

In assay [2] the target is T1, human NLRP3. Description: Human Whole Blood (hWB) NLRP3 Assay (IL-1β MSD). The note with it: LPS 1 μg/ml 4.5 h, ATP 30 min, class symbols. How it is done: Human whole blood was drawn from healthy volunteers after obtaining written informed consent. Heparin lithium coated tubes were used to collect blood from volunteers. Blood samples were distributed on 96 well plates using 90 μl per well. Priming was performed by adding 5 μl of LPS (O26:B6; Sigma L-2654) at a final concentration of 1 μg/ml for 4.5 hours in a humidified incubator with 37° C., 5% CO2. Thirty minutes prior to NLRP3 activation, 5 μl of a 20× compound solution or vehicle (2% DMSO) was added to each well and plates were incubated on a shaker (450 rpm) in a humidified incubator with 37° C., 5% CO2. Activation was then performed by adding 3.3 μl of a 31× ATP solution per well. At the end of the 30 minutes stimulation, the plates were centrifuged (800 g, 10 min, room temperature) and the plasma from each well was frozen at −80° C. IL-1β levels in the supernatant were analyzed using a mesoscale discovery assay (MSD K151TUK) according to the manufacturers' instructions.
hWB IL-1β Assay: A represents an IC50 value <0.3 μM; B represents an IC50 value ≥0.3 μM and <0.5 μM; C represents an IC50 value ≥0.5 μM and <1.0 μM; D represents an IC50 value >1.0 μM.

The next assay deals with T2, mouse NLRP3 (Mus musculus, UniProt Q8R4B8).
T2 construct: Blood was drawn from female CD1 mice (9 to 10 weeks) by cardiac puncture; from tissue; host or cells: whole blood of female CD1 mice, LPS-primed, ATP-stimulated
T2 sequence (Q8R4B8 whole entry): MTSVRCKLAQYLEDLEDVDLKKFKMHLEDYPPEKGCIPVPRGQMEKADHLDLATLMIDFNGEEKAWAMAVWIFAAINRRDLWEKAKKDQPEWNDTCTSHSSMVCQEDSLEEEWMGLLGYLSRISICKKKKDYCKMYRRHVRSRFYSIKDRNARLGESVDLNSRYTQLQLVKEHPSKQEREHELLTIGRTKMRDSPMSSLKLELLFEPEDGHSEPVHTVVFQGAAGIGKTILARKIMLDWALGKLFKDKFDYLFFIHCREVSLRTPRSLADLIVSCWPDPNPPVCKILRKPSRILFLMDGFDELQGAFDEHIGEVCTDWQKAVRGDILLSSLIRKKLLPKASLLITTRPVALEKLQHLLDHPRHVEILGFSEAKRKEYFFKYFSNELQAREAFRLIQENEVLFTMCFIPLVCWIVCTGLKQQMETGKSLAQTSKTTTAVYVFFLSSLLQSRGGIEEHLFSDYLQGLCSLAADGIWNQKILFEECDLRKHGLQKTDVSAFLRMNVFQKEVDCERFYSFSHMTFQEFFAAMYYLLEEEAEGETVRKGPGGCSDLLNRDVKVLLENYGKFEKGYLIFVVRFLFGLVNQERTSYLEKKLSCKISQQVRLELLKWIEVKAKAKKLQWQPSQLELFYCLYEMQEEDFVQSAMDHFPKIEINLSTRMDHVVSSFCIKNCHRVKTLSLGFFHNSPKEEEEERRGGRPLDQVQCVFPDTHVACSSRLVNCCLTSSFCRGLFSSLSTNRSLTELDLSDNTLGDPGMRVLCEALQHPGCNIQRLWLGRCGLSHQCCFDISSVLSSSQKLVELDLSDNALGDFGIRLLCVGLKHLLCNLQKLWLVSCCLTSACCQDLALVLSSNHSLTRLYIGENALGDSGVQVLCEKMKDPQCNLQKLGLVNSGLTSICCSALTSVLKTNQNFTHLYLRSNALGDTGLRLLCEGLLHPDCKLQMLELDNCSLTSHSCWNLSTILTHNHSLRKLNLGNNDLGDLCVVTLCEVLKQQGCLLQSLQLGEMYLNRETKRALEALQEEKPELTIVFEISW
Put plainly: Mouse Whole Blood (mWB) NLRP3 Assay (IL-1β MSD). To be noted: CD1 mouse whole blood, LPS 1 μg/mL 5 h, ATP 5 mM; class symbols. The procedure: Reagents: The following reagents were used: blood collection tubes (Heparin); U-bottom 96-well tissue culture (Falcon 353077); HBSS for LPS, ATP and compound dilutions (Gibco 24020-117); and LPS, E. coli serotype 026:B6 (Sigma L-2654).
Mouse IL-1b MSD assay: Blood was drawn from female CD1 mice (9 to 10 weeks) by cardiac puncture. Blood was plated (135 μL) per well in 96-well U-bottom plates. 7.5 μL of 20× LPS (20 μg/mL, final concentration of 1 μg/mL) was added and mixed by gentle pipetting, and the mixture was incubated in a TC incubator for five hours. 7.5 μL of 20× compound or vehicle per well was added and mixed by gentle pipetting. Compounds were diluted 1/50 in HBSS to prepare a 20× dilution curve in 2% DMSO. The mixture was incubated for 30 minutes in a TC incubator with shaking (450 rpm). 5 μl of 31× ATP (155 mM, final concentration of 5 mM) was added and mixed by gentle pipetting. The mixture was incubated in a TC incubator for 30 minutes with shaking (450 rpm). The plate was centrifuged for 10 minutes at 800×g and ˜70 μL of plasma was removed. Plasma was frozen if required. Mouse IL-1b was analyzed with IL-1b MSD assay (K152TUK). […]
mWB IL-1β Assay: A represents an IC50 value <0.3 μM; B represents an IC50 value ≥0.3 μM and <0.5 μM; C represents an IC50 value ≥0.5 μM and <1.0 μM; D represents an IC50 value ≥1.0 μM.

The mark [3] stands for this setting: LPS priming 4 h, nigericin stimulation 1 h, class symbols.
The mark [4] stands for this setting: LPS priming, nigericin stimulation, numeric values of Tables C1-C4.

Take `C[C@@H](CC(=O)O)[C@H](NC(=O)CN1C(=O)C(C)(C)c2c1ccc(C1CC1)c2F)C1CC1` (single isomer, unassigned) [Compound 60A*]: the IC50 against human NLRP3 [1] (setting [3]) is below 300 nM; against human NLRP3 [2], 500 to 1000 nM; on mouse NLRP3, below 300 nM.

`CC1(C)C(=O)N(CC(=O)NCCCc2nnn[nH]2)c2ccc(Br)cc21` [Compound 1, N-(3-(1H-tetrazol-5-yl)propyl)-2-(5-bromo-3,3-dimethyl-2-oxoindolin-1-yl)acetamide]: the IC50 against human NLRP3 [1] (setting [3]) was below 300 nM; against human NLRP3 [2] it was above 1000 nM; against mouse NLRP3, below 300 nM.

In the case of `CC1(C)C(=O)N(CC(=O)NCCCC(=O)O)c2ccc(Br)cc21` [Compound 2, 4-(2-(5-bromo-3,3-dimethyl-2-oxoindolin-1-yl)acetamido)butanoic acid], the IC50 against human NLRP3 [1] (setting [3]) is below 300 nM; at human NLRP3 [1] (setting [4]), 150 nM; at human NLRP3 [2], above 1000 nM; on mouse NLRP3 it was below 300 nM.

For `CC1(C)C(=O)N(CC(=O)N[C@@H]2CCCN(c3nnn[nH]3)C2)c2ccc(Br)cc21` [Compound 11A, (R)-N-(1-(1H-tetrazol-5-yl)piperidin-3-yl)-2-(5-bromo-3,3-dimethyl-2-oxoindolin-1-yl)acetamide], the IC50 is above 1000 nM on human NLRP3 [2] and below 300 nM against mouse NLRP3.

Regarding `CC1(C)C(=O)N(CC(=O)NCCCC(=O)O)c2c(O)cc(Br)cc21` [Compound 16, 4-(2-(5-bromo-7-hydroxy-3,3-dimethyl-2-oxoindolin-1-yl)acetamido)butanoic acid], the 50% inhibitory concentration (IC50) on human NLRP3 [1] (setting [3]) was below 300 nM; against human NLRP3 [2], 500 to 1000 nM; on mouse NLRP3 it was 500 to 1000 nM.

On to `CC1(C)C(=O)N(CC(=O)NCCCC(=O)O)c2c(F)cc(Br)cc21` [Compound 24, 4-(2-(5-bromo-7-fluoro-3,3-dimethyl-2-oxoindolin-1-yl)acetamido)butanoic acid], for which the IC50 at human NLRP3 [1] (setting [3]) was below 300 nM; against human NLRP3 [1] (setting [4]), 20 nM; at mouse NLRP3, below 300 nM.

Take `C[C@H]1C[C@@H](NC(=O)CN2C(=O)C(C)(C)c3cc(Br)cc(O)c32)CN(c2nnn[nH]2)C1` [Compound 26, 2-(5-bromo-7-hydroxy-3,3-dimethyl-2-oxoindolin-1-yl)-N-((3R,5S)-5-methyl-1-(1H-tetrazol-5-yl)piperidin-3-yl)acetamide]: on mouse NLRP3, the IC50 is 500 to 1000 nM.

As to `CC1(C)C(=O)N(CC(=O)NCCCC(=O)O)c2ccc(C3CC3)c(F)c21` [Compound 56, 4-(2-(5-cyclopropyl-4-fluoro-3,3-dimethyl-2-oxoindolin-1-yl)acetamido)butanoic acid], the IC50 at human NLRP3 [1] (setting [3]) was below 300 nM; against human NLRP3 [1] (setting [4]), 46 nM; against human NLRP3 [2] it was 500 to 1000 nM; on mouse NLRP3 it was below 300 nM.

Take `CC1(C)C(=O)N(CC(=O)NCCCC(=O)O)c2c(F)cc(C3CC3)c(F)c21` [Compound 57, 4-(2-(5-cyclopropyl-4,7-difluoro-3,3-dimethyl-2-oxoindolin-1-yl)acetamido)butanoic acid]: the IC50 against human NLRP3 [1] (setting [3]) is below 300 nM; against human NLRP3 [1] (setting [4]), 59 nM; on human NLRP3 [2] it was 300 to 500 nM; against mouse NLRP3, below 300 nM.

Regarding `C[C@@H](CCC(=O)O)NC(=O)CN1C(=O)C(C)(C)c2c(F)c(C3CC3)cc(F)c21` [Compound 59A, (S)-4-(2-(5-cyclopropyl-4,7-difluoro-3,3-dimethyl-2-oxoindolin-1-yl)acetamido)pentanoic acid], the IC50 is below 300 nM against human NLRP3 [1] (setting [3]), 300 to 500 nM against human NLRP3 [2] and below 300 nM against mouse NLRP3.

With `C[C@@H](CNC(=O)CN1C(=O)C(C)(C)c2c(F)c(C3CC3)cc(F)c21)CC(=O)O` [Compound 61A, (R)-4-(2-(5-cyclopropyl-4,7-difluoro-3,3-dimethyl-2-oxoindolin-1-yl)acetamido)-3-methylbutanoic acid], the IC50 against human NLRP3 [2] is 300 to 500 nM; against mouse NLRP3, below 300 nM.

On to `CC1(C)C(=O)N(CC(=O)NC[C@H](F)CC(=O)O)c2c(F)cc(C3CC3)c(F)c21` [Compound 62A, (R)-4-(2-(5-cyclopropyl-4,7-difluoro-3,3-dimethyl-2-oxoindolin-1-yl)acetamido)-3-fluorobutanoic acid], for which the IC50 against human NLRP3 [2] is 300 to 500 nM; on mouse NLRP3, below 300 nM.

On to `CC1(C)C(=O)N(CC(=O)NC[C@H](F)CC(=O)O)c2ccc(C3CC3)c(F)c21` [Compound 63A, (R)-4-(2-(5-cyclopropyl-4-fluoro-3,3-dimethyl-2-oxoindolin-1-yl)acetamido)-3-fluorobutanoic acid], for which the 50% inhibitory concentration (IC50) on human NLRP3 [1] (setting [3]) was below 300 nM; against human NLRP3 [2] it was 500 to 1000 nM; against mouse NLRP3, below 300 nM.

For `CC1(C)C(=O)N(CC(=O)NC[C@H](F)CC(=O)O)c2c(F)cc(C(F)(F)F)c(F)c21` [Compound 64A, (R)-4-(2-(4,7-difluoro-3,3-dimethyl-2-oxo-5-(trifluoromethyl)indolin-1-yl)acetamido)-3-fluorobutanoic acid], the IC50 on human NLRP3 [1] (setting [3]) is below 300 nM; on human NLRP3 [2] it was 500 to 1000 nM; on mouse NLRP3, below 300 nM.

Turning to `CC1(C)C(=O)N(CC(=O)NCCCc2nnn[nH]2)c2c(F)cc(C3CC3)c(F)c21` [Compound 65, N-(3-(1H-tetrazol-5-yl)propyl)-2-(5-cyclopropyl-4,7-difluoro-3,3-dimethyl-2-oxoindolin-1-yl)acetamide], the IC50 against human NLRP3 [1] (setting [3]) was below 300 nM; against human NLRP3 [1] (setting [4]), 15 nM; against human NLRP3 [2] it was 500 to 1000 nM; against mouse NLRP3 it was below 300 nM.

For the compound `CC1(C)C(=O)N(CC(=O)NCCCC(=O)O)c2c(F)cc(C3CC3)cc21` [Compound 66, 4-(2-(5-cyclopropyl-7-fluoro-3,3-dimethyl-2-oxoindolin-1-yl)acetamido)butanoic acid], the IC50 on human NLRP3 [1] (setting [3]) was below 300 nM; on human NLRP3 [1] (setting [4]) it was 24 nM; against human NLRP3 [2], below 300 nM; against mouse NLRP3, below 300 nM.
